Series [1] is described as follows: Stability of the compound in DMEM medium with 10% fetal bovine serum assessed as parent compound remaining at 200 uM incubated upto 24 hrs by HLPC analysis. The class given is ADME, cell-free. Conditions: cattle, read-out: Stability.
Series [2] concerns A-375. The series is described as follows: Antiproliferative activity against human A-375 cells assessed as reduction in cell viability at 1.5625 to 50 uM after 24 hrs by MTT assay. To be noted: dose 1.5625-50 µM. The class given is functional, cell-based. (In general: Tetrazolium assays rely on reduction of a dye to a coloured formazan, in cell work by metabolically active cells.)

Series [3] relates to A-375. Description: Binding affinity to RACK1 in human A-375 cells at 10 uM preincubated for 4 hrs followed by irradiation with UV for 30 mins measured by Western blotting based pull-down assay. The class given is cell-based. To be noted: time 4.5 hrs. A general note: In western blotting, separated proteins are transferred to a membrane and probed.
Series [4] relates to A-375. The series is described as follows: Inhibition of cell migration in human A-375 cells at measured after 24 hrs by phase contrast microscopy based wound healing assay. The class given is functional. Conditions: dose 0.5-2 µM.
Series [5] deals with A-375. Description: Inhibition of cell invasion in human A-375 cells at measured after 24 hrs by crystal violet staining based imaging analysis. To be noted: dose 0.5-2 µM. The class given is functional.
A short description of series [6]: Drug degradation in DMEM medium with 10% fetal bovine serum assessed as compound hydrolysis at 200 uM incubated upto 24 hrs by HLPC analysis. The class given is ADME, cell-free. To be noted: cattle, read-out: Drug degradation.
The subject of series [7] is A-375. The series is described as follows: Binding affinity to RACK1 in human A-375 cells at 10 uM preincubated for 4 hrs in the presence of harringtonolide followed by irradiation with UV for 30 mins measured by Western blotting based pull-down assay. To be noted: time 4.5 hrs. The class given is cell-based.
Series [8] has as its system A-375. Description: Antiproliferative activity against human A-375 cells assessed as reduction in cell viability upto 50 uM after 24 hrs by MTT assay. The class given is functional, cell-based. To be noted: dose microM <=50, time 24.0 hrs.
Series [9] has as its system A-375. Description: Binding affinity to RACK1 in human A-375 cells assessed as prevention of temperature dependent protein degradation at 10 uM preincubated for 60 mins at room temperature followed by heat treatment at 45 to 63 degree C for 5 mins measured by immunoblotting based cellular thermal shift assay. The class given is cell-based.
For series [10], the system named is A-375. The series is described as follows: Antiproliferative activity against human A-375 cells assessed as reduction in cell viability after 24 hrs by MTT assay. The class given is functional, cell-based. To be noted: A-375, 24 h.
Series [11] relates to A-375. Description: Binding affinity to RACK1 in human A-375 cells assessed as prevention of pronase-mediated protein degradation at 5 to 20 uM preincubated for 60 mins followed by enzyme addition and measured after 25 mins by immunoblotting based DARTS assay. To be noted: dose 5-20 µM, time 85.0 min. The class given is cell-based.
Series [12] deals with A-375. Description: Inhibition of epithelial-mesenchymal transition in human A-375 cells assessed as downregulation of N-cadherin expression at 0.5 to 4 uM measured after 24 hrs by Western blotting analysis. The class given is functional, cell-based. Conditions: dose 0.5-4 µM.
Series [13] has as its system A-375. Description: Inhibition of epithelial-mesenchymal transition in human A-375 cells assessed as downregulation of Snail expression at 0.5 to 4 uM measured after 24 hrs by Western blotting analysis. The class given is functional, cell-based. Conditions: dose 0.5-4 µM.
Series [14] relates to A-375. The series is described as follows: Inhibition of epithelial-mesenchymal transition in human A-375 cells assessed as upregulation of E-cadherin expression at 0.5 to 4 uM measured after 24 hrs by Western blotting analysis. The class given is functional, cell-based. Conditions: dose 0.5-4 µM.
Series [15] concerns the target Focal adhesion kinase 1 (Homo sapiens) (UniProt Q05397). The series is described as follows: Inhibition of FAK phosphorylation in human A-375 cells measured after 24 hrs by Western blotting analysis. The class given is cell-based. Conditions: dose 0.5-4 µM.
The target is the same in series [16]. Description: Inhibition of FAK in human A-375 cells assessed as reduction in Src activation at 0.5 to 4 uM measured after 24 hrs by Western blotting analysis. The class given is cell-based. Conditions: dose 0.5-4 µM.
Series [17] shares this target. The series is described as follows: Inhibition of FAK in human A-375 cells assessed as reduction in STAT3 activation at 0.5 to 4 uM measured after 24 hrs by Western blotting analysis. The class given is cell-based. To be noted: dose 0.5-4 µM.
The target of series [18] is Signal transducer and activator of transcription 3 (Homo sapiens) (UniProt P40763). Description: Inhibition of STAT3 in human A-375 cells assessed as decrease in Bcl2 protein level at 0.5 to 4 uM measured after 24 hrs by western blot analysis. The class given is cell-based. To be noted: dose 0.5-4 µM.
Series [19] shares this target. The series is described as follows: Inhibition of STAT3 in human A-375 cells assessed as decrease in c-Myc protein level at 0.5 to 4 uM measured after 24 hrs by western blot analysis. To be noted: dose 0.5-4 µM. The class given is cell-based.
Series [20] relates to A-375. Description: Inhibition of RACK1-FAK protein-protein interaction in human A-375 cells measured after 24 hrs by co-immunoprecipitation assay. To be noted: dose 2-4 µM. The class given is cell-based.

Structures are written as SMILES. The source made the active and inactive calls. The rule behind the calls is not given here.

Chain of Focal adhesion kinase 1 (Homo sapiens) (Q05397 2-1052 limits assumed): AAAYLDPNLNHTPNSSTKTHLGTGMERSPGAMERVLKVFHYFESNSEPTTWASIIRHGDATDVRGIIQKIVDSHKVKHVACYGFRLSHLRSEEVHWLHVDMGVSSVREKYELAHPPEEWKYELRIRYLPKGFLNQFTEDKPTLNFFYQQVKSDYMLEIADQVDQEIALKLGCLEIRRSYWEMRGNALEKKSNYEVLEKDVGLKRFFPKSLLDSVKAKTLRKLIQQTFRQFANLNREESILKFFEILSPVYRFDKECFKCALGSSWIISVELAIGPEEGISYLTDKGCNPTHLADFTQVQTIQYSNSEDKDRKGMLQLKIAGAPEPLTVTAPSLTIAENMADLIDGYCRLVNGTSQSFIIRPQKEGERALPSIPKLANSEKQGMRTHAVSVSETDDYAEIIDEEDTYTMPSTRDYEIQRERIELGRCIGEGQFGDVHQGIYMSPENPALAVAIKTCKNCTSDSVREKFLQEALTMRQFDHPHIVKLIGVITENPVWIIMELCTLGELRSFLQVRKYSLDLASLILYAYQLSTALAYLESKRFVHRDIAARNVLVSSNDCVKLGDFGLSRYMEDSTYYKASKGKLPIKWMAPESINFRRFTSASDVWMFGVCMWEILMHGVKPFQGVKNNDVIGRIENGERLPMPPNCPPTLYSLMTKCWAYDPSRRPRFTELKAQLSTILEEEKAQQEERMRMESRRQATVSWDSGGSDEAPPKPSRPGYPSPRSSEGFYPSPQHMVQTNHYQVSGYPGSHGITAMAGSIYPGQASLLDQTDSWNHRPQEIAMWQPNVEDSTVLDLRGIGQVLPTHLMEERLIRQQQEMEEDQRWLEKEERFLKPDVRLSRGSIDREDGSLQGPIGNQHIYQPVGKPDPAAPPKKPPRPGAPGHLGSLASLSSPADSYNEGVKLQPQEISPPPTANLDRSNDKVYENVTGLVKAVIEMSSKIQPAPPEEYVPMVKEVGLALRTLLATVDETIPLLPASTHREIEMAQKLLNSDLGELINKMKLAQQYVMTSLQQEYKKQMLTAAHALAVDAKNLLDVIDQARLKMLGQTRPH
Chain of Signal transducer and activator of transcription 3 (Homo sapiens) (P40763 whole entry): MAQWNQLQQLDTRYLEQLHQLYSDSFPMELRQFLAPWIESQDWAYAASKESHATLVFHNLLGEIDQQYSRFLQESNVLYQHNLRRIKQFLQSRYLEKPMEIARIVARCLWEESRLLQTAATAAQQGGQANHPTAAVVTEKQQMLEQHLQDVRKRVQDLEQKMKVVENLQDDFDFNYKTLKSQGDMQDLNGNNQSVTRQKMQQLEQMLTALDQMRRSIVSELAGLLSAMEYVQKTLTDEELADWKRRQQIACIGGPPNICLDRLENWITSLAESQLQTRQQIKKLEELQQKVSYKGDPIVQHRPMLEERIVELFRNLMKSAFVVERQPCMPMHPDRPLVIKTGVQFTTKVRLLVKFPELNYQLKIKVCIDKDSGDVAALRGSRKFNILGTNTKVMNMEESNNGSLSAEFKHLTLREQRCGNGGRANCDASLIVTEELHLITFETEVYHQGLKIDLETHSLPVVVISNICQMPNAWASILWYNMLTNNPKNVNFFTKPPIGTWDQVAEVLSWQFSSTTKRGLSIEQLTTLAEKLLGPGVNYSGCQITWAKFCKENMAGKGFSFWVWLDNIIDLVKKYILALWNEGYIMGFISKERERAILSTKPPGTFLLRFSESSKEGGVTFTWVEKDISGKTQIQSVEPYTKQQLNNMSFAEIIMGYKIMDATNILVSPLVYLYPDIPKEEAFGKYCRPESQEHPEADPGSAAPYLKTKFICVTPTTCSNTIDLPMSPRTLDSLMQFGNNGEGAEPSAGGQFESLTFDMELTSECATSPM

For the compound `Cc1cc(=O)cc2c3c1[C@@H]1O[C@H]4[C@@H]5OC(=O)[C@](C[C@@H]2OC(=O)COCCOCCNC(=O)CCCC[C@@H]2SC[C@@H]6NC(=O)N[C@@H]62)([C@@H]4C)[C@H]3[C@@H]51`, the remaining at 24 h, 200 µM in series [1] came out at 59.2%. For the same compound, the outcome in series [2] was Active.

On to `C#CCCC1(CCC(=O)O[C@H]2C[C@]34C(=O)O[C@H]5[C@H](O[C@H]6c7c(C)cc(=O)cc2c7[C@@H]3[C@@H]56)[C@H]4C)N=N1`, for which the outcome in series [3] and in series [2] was Active. Besides, the inhibition entry in series [4] and in series [5] was “Dose-Dependent Effect” in each case. In addition, the degraded at 24 h, 200 µM in series [6] worked out at 13.6%. The result in [7] was inactive.

Regarding `Cc1cc(=O)cc2c3c1[C@@H]1O[C@H]4[C@@H]5OC(=O)[C@](C[C@@H]2OC(=O)COCCOCCOCCOCCNC(=O)CCCC[C@@H]2SC[C@@H]6NC(=O)N[C@@H]62)([C@@H]4C)[C@H]3[C@@H]51`, the result in [8] was inactive.

For orientation: IC50 means the concentration at which inhibition is half-maximal. `Cc1cc(=O)cc2c3c1[C@@H]1O[C@H]4[C@@H]5OC(=O)[C@](CC2)([C@@H]4C)[C@H]3[C@@H]51` [HAINANOLIDE]: the result in series [9] and in series [11] was Active. Also, the concentration for half-maximal inhibition (IC50) in series [10] was 39.7 µM. For the same compound, the inhibition entry in series [4], in series [5], in series [15] and in series [20] was “Dose-Dependent Effect” each time. For the same compound, the inhibition result in [12], in series [13], in series [14], in series [16], in [17] and in [18] was “Active” throughout. Moreover, the inhibition entry in series [19] was “Active”.

These data come from ChEMBL document CHEMBL5046311, “Photoaffinity Probe Reveals the Potential Target of Harringtonolide for Cancer Cell Migration Inhibition” (ACS Med Chem Lett, 2022).
